Results: patent publication US7736649B2, “Methods of inhibiting human immunodeficiency virus infection through the administration of synergistic combinations of anti-CCR5 monoclonal antibodies, fusion inhibitors, and CD4-GP120 binding inhibitors” (priority 2000, dated 2010)
Where two headings read alike, the source gives them in different places.

How the values were obtained:
[1] = tested on: HIV-1; details: cited from earlier work
[2] = tested on: HIV-1JR-FL env-mediated membrane fusion
Experimental: HIV-1 envelope-mediated fusion between HeLa-EnvJR-FL and PM1 cells was detected using a Resonance Energy Transfer (RET) assay.
HIV-1 inhibition data were analyzed according to the Combination Index method of Chou and Talay. The data are modeled according to the median-effect principle, which can be written f=1/[1+(K/c)^m] (1) where f is the fraction affected/inhibited, c is concentration, K is the concentration of agent required to produce the median effect, and m is an empirical coefficient describing the shape of the dose-response curve. Equation (1) is a generalized form of the equations describing Michaelis-Menton enzyme kinetics, Langmuir adsorption isotherms, and Henderson-Hasselbalch ionization equilibria, for which m=1 in all cases. In the present case, K is equal to the IC50 value. K and m are determined by curve-fitting the dose-response curves.
(§1) After the best-fit parameters for K and m are obtained for the experimental agents and their combination, Equation (1) is rearranged to allow for calculation of c for a given f. The resulting table of values (e.g., Figure X) is used to calculate the Combination Index (CI) using the equation CI=c1m/c1+c2m/c2+c1mc2m/c1c2 (2) where • c1=concentration of compound 1 when used alone • c2=concentration of compound 2 when used alone • C1m=concentration of compound 1 in the mixture • C2m=concentration of compound 2 in the mixture
All concentrations are those required to achieve a given degree of inhibition. Equation (2) is used when the molecules are mutually nonexclusive, i.e., have different sites of action. Since this is the likely scenario for inhibitors of HIV-1 attachment and gp41 fusion intermediates, Equation (2) was used for all Combination Index calculations. Mutually nonexclusive calculations provide a more conservative estimate of the degree of synergy that mutually exclusive calculations, for which the c1mc2m/c1c2 term is dropped. CI<1 indicates synergy, CI=1 indicates purely additive effects, and CI>1 indicates antagonism. In general, CI values are most relevant at the higher levels of inhibition that are required to achieve a measurable clinical benefit.
as §1, with “c2 concentration” for “c2=concentration”, “c1m=concentration” for “C1m=concentration”, “c2m=concentration” for “C2m=concentration”
HIV-1 cell-cell fusion assays Cell-cell fusion mediated by the envelope glycoproteins of HIV-1JR-FL and HIV-1LAI was measured using a fluorescence resonance energy transfer (RET) assay, which measures fusion between HeLa cells expressing HIV-1 envelope glycoproteins and CD4^+ target cells. The T cell lines PM1 and SupT1 were used as target cells in this study. PM1 endogenously express CCR5 and CXCR4. […] The RET signal is directly related to the extent of membrane fusion.
(§2) Quantitative analysis of drug interactions Inhibition data from three independent assays were averaged and analyzed for cooperative effects using the Combination Index (CI) method. In all analyses, PRO 542 and T-20 were assumed to act non-competitively, which leads to a more conservative estimate of synergy. CI values of <0.9 (or >1.1) were taken to represent meaningful synergy (or antagonism). Dose reductions were calculated as the ratio of drug concentrations required for inhibition when the drug is used, alone or in combination.
An HIV-1 cell-cell fusion assay is described in FIG. 18. Such assay is a Resonance Energy Transfer (RET) assay of HIV-1 membrane fusion.

[3] = tested on: HIV-1 fusion intermediates; details: cited from earlier work
[4] = tested on: HIV-1JR-FL (R5)
Experimental: HIV-1 virus-cell fusion assays NLluc^+env^− viruses were complemented in trans by the envelope glycoproteins (Env) from HIV-1JR-FL (R5) or HIV-1DH123 (R5X4). HeLa-CD4^+CCR5^+ cells were infected with chimeric reporter viruses containing 50-100 ng/ml of p24 in the presence or absence of drugs. Cells were washed and fed fresh drug-containing media at 2 h and drug-free media at 12 h. After 72 h, cell lysates were assayed for luciferase activity.
as §2
An HIV-1 virus-cell fusion assay is described in FIG. 15. In a single-cycle HIV-1 entry assay, Env-Luc+ HIV reporter viruses were prepared as described. The viruses are complemented with gp120/gp41 from an HIV strain of interest and thus are capable of fusing with target cells that express CD4 and fusion coreceptors, resulting in the introduction of the viral genes into the cell. Because the viruses encode the luciferase reporter enzyme rather than HIVenv, infection leads to the production of luciferase rather than new viral particles. The amount of luciferase is measured 72 hours post-infection using standard methods.

[5] = cells and inhibitor co-incubated 2 h at 25° C. prior to washing and warming to 37° C., data not shown

Substance: enfuvirtide
- pK, in words ([1]; Phase I/II clinical trials): supports twice daily subcutaneous dosing
- tolerability ([1]; Phase I/II clinical trials): good tolerability
- viral load, in words ([1]; Phase I/II clinical trials): clinically significant dose-dependent reductions
- reduction of plasma HIV RNA levels ([1]; Phase I/II): ≤ 2 logs
- reductions in HIV RNA ([1]; single agent, Phase I/II trials): 1-2 log10
- concentration of the agent contained in the combination at 95% inhibition ([2]; 25:1 CD4-IgG2:T-20 mass ratio combination): 0.044 µg/mL
- dose reduction (alone v. in combination) ([2]; 95% inhibition, 25:1 mass ratio): 5 fold
- activity in cell-cell preincubation assay, in words ([2]; HeLa-Env and PM1 cells co-incubated 2 h at 25° C., inhibitor added, warmed to 37° C.): fully active
- concentration required for inhibition of viral entry by 95% ([2]; agent used alone, or total of 25:1 mass ratio combination): 0.21 µg/mL
- IC90 ([2]; alone, or total of 1:10 molar PRO 542:T-20 combination): 22 nM
- K (concentration producing the median effect, equal to IC50) ([2]; best-fit median-effect parameter, 4 h incubation, mean of three experiments): 0.017 µg/mL
- activity, in words [2, 5]: essentially inactive
- fold increase in IC50 [2, 5]: > 250 fold
- activity when pre-incubated with PM1 cells prior to washing ([2]; data not shown): Neither drug demonstrated activity
- activity in washout assay, in words ([2]; drug pre-incubated with HeLa-Env cells, washed, then PM1 cells added): essentially inactive
- IC90 ([2]; read-out: concentration of the agent in the combination at IC90, 1:10 molar combination): 4.9 nM
- inhibition ([3]; added at 75 minutes): < 10%
- inhibition ([3]; added within the first 15 minutes of cell mixing): 100%
- dose reduction (fold less drug needed) ([4]; 90-95% inhibition, 1:2 molar): ~20 fold
- IC90 ([4]; read-out: IC90 (concentration required for 90% inhibition), alone, or total of 1:2 molar PRO 542:T-20 combination): 45 nM
- IC90 ([4]; read-out: concentration of the agent in the combination at IC90, 1:2 molar combination): 2.6 nM
